For ten compounds, Ki results are on record in ChEMBL document CHEMBL1147410, “Binding of an imidazopyridoindole at imidazoline I2 receptors” (Bioorg Med Chem Lett, 2004).

The structures appear in SMILES notation. Bounds are passed on as bounds.

Assay [1] is described as follows: Binding affinity for rat imidazoline I2 receptor from crude P2 membranes.
The nature of assay [2]: Binding affinity for rat imidazoline I2 receptor from crude P2 membranes; 1-5.
Assay [3] is described as follows: Binding affinity for rat imidazoline I2 receptor from crude P2 membranes; 350-880.
Assay [4] addresses T1, Adrenergic receptor alpha-2 (Rattus norvegicus, UniProt P22086+P19328+P22909).
T1 sequence (P22086 whole entry): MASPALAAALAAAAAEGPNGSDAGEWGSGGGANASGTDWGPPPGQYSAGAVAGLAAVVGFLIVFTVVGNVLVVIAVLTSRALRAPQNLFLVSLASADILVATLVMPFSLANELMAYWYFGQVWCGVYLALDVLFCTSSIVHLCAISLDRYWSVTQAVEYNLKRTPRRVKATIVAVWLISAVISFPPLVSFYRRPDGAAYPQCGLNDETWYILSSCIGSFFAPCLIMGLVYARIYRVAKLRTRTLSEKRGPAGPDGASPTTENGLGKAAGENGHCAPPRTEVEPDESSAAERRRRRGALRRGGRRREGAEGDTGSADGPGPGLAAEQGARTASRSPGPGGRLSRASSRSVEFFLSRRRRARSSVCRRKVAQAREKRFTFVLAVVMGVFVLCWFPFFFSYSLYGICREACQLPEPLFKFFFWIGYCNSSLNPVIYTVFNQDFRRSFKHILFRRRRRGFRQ
T1 sequence (P19328 whole entry): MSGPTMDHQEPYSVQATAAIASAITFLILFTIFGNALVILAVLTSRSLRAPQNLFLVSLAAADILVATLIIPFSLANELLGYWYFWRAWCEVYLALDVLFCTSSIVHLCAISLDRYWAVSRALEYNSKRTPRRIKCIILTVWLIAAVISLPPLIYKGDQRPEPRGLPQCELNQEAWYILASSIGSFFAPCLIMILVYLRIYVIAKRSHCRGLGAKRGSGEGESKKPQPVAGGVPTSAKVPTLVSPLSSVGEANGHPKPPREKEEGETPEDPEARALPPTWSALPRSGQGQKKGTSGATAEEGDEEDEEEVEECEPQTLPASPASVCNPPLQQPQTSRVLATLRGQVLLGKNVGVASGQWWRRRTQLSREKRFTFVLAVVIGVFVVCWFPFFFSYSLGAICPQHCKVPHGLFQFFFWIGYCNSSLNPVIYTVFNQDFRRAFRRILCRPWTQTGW
T1 sequence (P22909 whole entry): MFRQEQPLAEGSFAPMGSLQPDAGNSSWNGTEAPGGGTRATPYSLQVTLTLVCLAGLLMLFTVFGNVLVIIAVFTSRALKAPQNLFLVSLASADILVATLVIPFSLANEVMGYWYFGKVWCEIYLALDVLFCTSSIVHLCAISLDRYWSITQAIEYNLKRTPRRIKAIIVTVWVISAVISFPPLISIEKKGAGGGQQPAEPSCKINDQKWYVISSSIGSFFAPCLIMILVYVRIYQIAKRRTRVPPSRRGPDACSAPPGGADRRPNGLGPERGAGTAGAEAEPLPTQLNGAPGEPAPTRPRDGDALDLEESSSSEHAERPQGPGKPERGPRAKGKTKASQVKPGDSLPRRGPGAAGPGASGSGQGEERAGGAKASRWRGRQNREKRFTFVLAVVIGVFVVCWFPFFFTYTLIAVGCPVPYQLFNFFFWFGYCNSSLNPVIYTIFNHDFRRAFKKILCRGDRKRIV
Nature of the assay: Binding affinity for rat alpha-2 adrenergic receptor from crude P2 membranes.

The term Ki denotes a measure of affinity in units of concentration, obtained from inhibition or displacement. Compound `c1coc(C2=NCCN2)c1` gave an inhibition constant (Ki) in assay [1] of 2340 nM. In turn, `c1ccc(OCC2=NCCN2)cc1` displayed an inhibitory constant (Ki) in assay [2] of 5 nM. In assay [1], `c1ccc2c(c1)CC(C1=NCCN1)O2` (stereo not drawn) yielded an inhibition constant Ki of around 50 nM.

In assay [3], `c1ccc2oc(-c3ncc[nH]3)cc2c1` had an inhibition constant Ki of around 880 nM.

The compound `c1ccc2c3c([nH]c2c1)C1=NCCN1CC3` displayed a Ki in assay [1] of 7.3 nM. Regarding `c1ccc2oc(C3=NCCN3)cc2c1`, the figures for the Ki in assay [4] and in assay [1] were 4000 nM and below 10 nM, respectively. As for `COc1ccc2c3c([nH]c2c1)CNCC3`, the inhibition constant Ki in assay [4] turned out to be 8840 nM. On to `c1ccc(CCC2=NCCN2)cc1` [PHENYZOLINE], for which the Ki in assay [2] turned out to be 5 nM.

As for `C(=C\c1ccccc1)/C1=NCCN1` [TRACIZOLINE], the inhibition constant Ki in assay [4] was 7413 nM; in assay [1] it was 2 nM.

For `c1ccc2c3c([nH]c2c1)CNCC3` [TRYPTOLINE], the values for the Ki in assay [4] and in assay [1] were 710 nM and 9.4 nM, respectively.
